Columns and labels:
Assay in all cases: relative viability (nuclei count vs DMSO), 5 days (fraction); higher = more cells survive
[1] = compound: COc1cc2/c(=N/c3ccc(Br)cc3F)nc[nH]c2cc1OCC1CCN(C)CC1 [Vandetanib] + CC(=O)c1c(C)c2cnc(Nc3ccc(N4CCNCC4)cn3)nc2n(C2CCCC2)c1=O [Palbociclib] (partner 0.5 µM)
Method in brief: (§1)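 Five library-drug doses in √10 steps were combined with a fixed anchor-drug dose, or a single drug was given alone, by pin tool to lung cancer cell lines in 1536-well plates the day after seeding. Nuclei were stained and counted after 5 days. Relative viability is the nuclei count in treated wells over that in vehicle wells, taken as the median of duplicate plates.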

[2] = compound: COc1cc(N2CCC(N3CCN(C)CC3)CC2)ccc1Nc1ncc(Cl)c(Nc2ccccc2S(=O)(=O)C(C)C)n1 [NVP-TAE684] + COc1cc2c(Oc3ccc(NC(=O)C4(C(=O)Nc5ccc(F)cc5)CC4)cc3F)ccnc2cc1OCCCN1CCOCC1 [Foretinib] (partner 0.25 µM)
Method in brief: as §1

[3] = compound: COc1cc2/c(=N/c3ccc(Br)cc3F)nc[nH]c2cc1OCC1CCN(C)CC1 [Vandetanib] + O=C(CCCCCCC(=O)Nc1ccccc1)NO [Vorinostat] (partner 1 µM)
Method in brief: as §1

[4] = compound: COc1cc(N2CCC(N3CCN(C)CC3)CC2)ccc1Nc1ncc(Cl)c(Nc2ccccc2S(=O)(=O)C(C)C)n1 [NVP-TAE684] + CCNC(=O)c1noc(-c2cc(C(C)C)c(O)cc2O)c1-c1ccc(CN2CCOCC2)cc1 [Luminespib] (partner 0.01 µM)
Method in brief: as §1

Cell Line | relative viability ([1]; first compound 0.02 µM) | relative viability ([1]; first compound 0.06325 µM) | relative viability ([1]; first compound 0.2 µM) | relative viability ([1]; first compound 0.6325 µM) | relative viability ([1]; first compound 2 µM) | relative viability ([2]; first compound 0.2 µM) | relative viability ([2]; first compound 0.6325 µM) | relative viability ([2]; first compound 2 µM) | relative viability ([3]; first compound 0.02 µM) | relative viability ([3]; first compound 0.06325 µM) | relative viability ([3]; first compound 0.2 µM) | relative viability ([3]; first compound 0.6325 µM) | relative viability ([3]; first compound 2 µM) | relative viability ([4]; first compound 0.2 µM) | relative viability ([4]; first compound 0.6325 µM) | relative viability ([4]; first compound 2 µM)
NCI-H2009 | 0.221 | 0.3 | 0.197 | 0.25 | 0.25 | 1.07 | 1.14 | 1.09 | 0.724 | 0.638 | 0.727 | 0.783 | 0.756 | 0.925 | 1.05 | 0.944
NCI-H1437 | 0.295 | 0.32 | 0.346 | 0.302 | 0.341 | 1.25 | 1.27 | 1.29 | 0.824 | 0.819 | 0.866 | 0.937 | 0.995 | 1.14 | 1.13 | 1.08
NCI-H2087 | 0.244 | 0.196 | 0.183 | 0.281 | 0.212 | 1.05 | 1.2 | 0.638 | 0.755 | 0.604 | 0.657 | 0.614 | 0.922 | 0.146 | 0.205 | 0.151
LCLC-103H | 0.439 | 0.521 | 0.388 | 0.478 | 0.406 | 0.681 | 0.681 | 0.297 | 0.756 | 0.759 | 0.822 | 0.755 | 0.814 | 0.918 | 0.923 | 0.61
PC-14 | 0.536 | 0.436 | 0.0488 | 0.117 | 0.0605 | 0.689 | 1.12 | 1.03 | 0.774 | 0.619 | 0.493 | 0.107 | 0.0824 | 0.157 |  | 0.144
H3255 | 0.316 | 0.311 | 0.32 | 0.298 | 0.245 | 0.882 | 0.804 | 0.631 | 0.763 | 0.704 | 0.808 | 0.507 | 0.644 | 0.897 | 0.828 | 0.765
NCI-H2342 | 0.525 | 0.507 | 0.518 | 0.477 | 0.569 | 1.07 | 1.06 | 0.545 | 0.754 | 0.674 | 0.785 | 0.739 | 0.645 | 0.742 | 0.845 | 0.647
NCI-H460 | 0.147 | 0.157 | 0.189 | 0.148 | 0.166 | 1.2 | 1.02 | 0.817 | 0.632 | 0.674 | 0.685 | 0.654 | 0.674 | 0.0418 | 0.0325 | 0.0305
HOP-62 | 0.421 | 0.437 | 0.431 | 0.509 | 0.412 | 1.21 | 1.12 | 1.12 | 0.553 | 0.574 | 0.651 | 0.686 | 0.811 | 1.03 | 0.816 | 0.882
NCI-H2085 | 0.447 | 0.479 | 0.496 | 0.498 | 0.489 | 0.987 | 0.967 | 0.485 | 0.836 | 0.74 | 0.66 | 0.773 | 0.777 | 0.435 | 0.39 | 0.294
COR-L23 | 0.345 | 0.27 | 0.294 | 0.318 | 0.268 | 0.967 | 0.996 | 0.332 | 0.427 | 0.406 | 0.463 | 0.451 | 0.516 | 0.909 | 0.457 | 0.152
HARA | 0.261 | 0.224 | 0.225 | 0.293 | 0.221 | 0.886 | 0.619 | 0.517 | 0.496 | 0.477 | 0.521 | 0.616 | 0.524 | 0.991 | 0.517 | 0.389
201T | 0.35 | 0.353 | 0.332 | 0.314 | 0.335 | 1.12 | 0.96 | 0.403 | 0.886 | 0.876 | 0.959 | 0.904 | 0.957 | 0.964 | 0.992 | 0.69
EMC-BAC-2 | 0.533 | 0.499 | 0.546 | 0.515 | 0.502 | 0.958 | 0.977 | 0.467 | 0.506 | 0.469 | 0.431 | 0.5 | 0.369 |  | 1.21 | 0.824
NCI-H441 | 0.221 | 0.253 | 0.21 | 0.197 | 0.171 | 0.892 | 0.832 | 0.382 | 0.781 | 0.702 | 0.8 | 0.767 | 0.821 | 0.315 | 0.313 | 0.36
NCI-H1944 | 0.323 | 0.343 | 0.322 | 0.276 | 0.303 | 0.847 | 0.929 | 0.533 | 0.51 | 0.542 | 0.526 | 0.476 | 0.602 | 0.667 | 0.741 | 0.58
NCI-H727 | 0.622 | 0.692 | 0.679 | 0.578 | 0.56 | 0.855 | 0.818 | 0.38 | 1.11 | 1.18 | 1.13 | 1.26 | 0.992 | 0.24 | 0.382 | 0.216

Cell Line | relative viability ([1]; first compound 0.02 µM) | relative viability ([1]; first compound 0.06325 µM) | relative viability ([1]; first compound 0.2 µM) | relative viability ([1]; first compound 0.6325 µM) | relative viability ([1]; first compound 2 µM) | relative viability ([2]; first compound 0.2 µM) | relative viability ([2]; first compound 0.6325 µM) | relative viability ([2]; first compound 2 µM) | relative viability ([3]; first compound 0.02 µM) | relative viability ([3]; first compound 0.06325 µM) | relative viability ([3]; first compound 0.2 µM) | relative viability ([3]; first compound 0.6325 µM) | relative viability ([3]; first compound 2 µM) | relative viability ([4]; first compound 0.2 µM) | relative viability ([4]; first compound 0.6325 µM) | relative viability ([4]; first compound 2 µM)
NCI-H1993 | 0.661 | 0.628 | 0.602 | 0.581 | 0.392 | 0.766 | 0.746 | 0.553 |  | 0.741 | 0.797 | 0.639 | 0.566 |  | 0.785 | 0.499
ChaGo-K-1 | 0.921 | 0.881 | 0.19 | 0.887 | 0.927 | 0.943 | 0.818 | 0.538 | 0.735 | 0.765 | 0.767 | 0.797 | 0.798 | 0.661 | 0.67 | 0.44
NCI-H3122 | 0.198 | 0.183 | 0.126 | 0.178 | 0.228 | 0.218 | 0.274 | 0.101 | 0.95 | 0.965 | 1.08 | 1.02 | 0.994 | 0.0817 | 0.0775 | 0.068
NCI-H1651 | 0.484 | 0.501 | 0.515 | 0.515 | 0.446 | 0.802 | 0.883 | 0.774 | 0.53 | 0.618 | 0.62 | 0.535 | 0.593 | 1.24 |  | 0.693
NCI-H1355 | 0.437 | 0.399 | 0.408 | 0.387 | 0.373 | 0.9 | 0.989 | 0.428 | 0.603 | 0.565 | 0.671 | 0.624 | 0.649 | 0.594 | 0.687 | 0.471
NCI-H23 | 0.416 | 0.427 | 0.489 | 0.54 | 0.495 | 1.03 | 0.769 | 0.356 | 0.55 | 0.585 | 0.517 | 0.608 | 0.598 | 0.225 | 0.21 | 0.204
NCI-H2126 | 0.338 | 0.348 | 0.328 | 0.356 | 0.35 | 1.13 | 1.22 | 0.84 | 0.801 | 0.736 | 0.703 | 0.702 | 0.699 | 0.94 | 0.845 | 0.398
LU99A | 0.378 | 0.428 | 0.337 | 0.359 | 0.376 | 0.873 | 0.83 | 0.365 | 0.474 | 0.377 | 0.499 | 0.49 | 0.528 | 0.301 | 0.259 | 0.253
NCI-H650 | 0.358 | 0.317 | 0.366 | 0.323 | 0.291 | 0.983 | 1 | 0.753 | 0.585 | 0.533 | 0.514 | 0.544 | 0.341 | 0.776 | 0.682 | 0.489
LXF-289 | 0.588 | 0.565 | 0.518 | 0.575 | 0.558 | 1.05 | 0.958 | 0.715 | 0.806 | 0.766 | 0.768 | 0.848 | 0.708 | 0.583 | 0.776 | 0.425
CAL-12T | 0.562 | 0.474 | 0.482 | 0.22 | 0.172 | 1.05 | 1.11 | 0.233 | 0.724 | 0.549 | 0.67 | 0.759 | 0.415 | 0.185 | 0.655 | 0.0938
SK-MES-1 | 0.349 | 0.292 | 0.243 | 0.332 | 0.294 | 0.597 | 1.12 | 0.774 | 1.05 | 0.916 | 1.1 | 0.949 | 0.795 | 0.842 | 0.76 | 0.321
SW 1573 | 0.413 | 0.421 |  | 0.29 | 0.403 | 0.916 | 0.951 | 0.599 | 0.635 | 0.674 |  | 0.957 | 0.751 | 0.185 | 0.0996 | 0.0857
NCI-H1975 | 0.539 | 0.542 | 0.593 | 0.585 | 0.61 | 1.2 | 0.911 | 0.497 | 0.71 | 0.646 | 0.709 | 0.665 | 0.636 | 0.23 | 0.138 | 0.167
NCI-H647 | 0.402 | 0.385 | 0.384 | 0.358 | 0.381 | 1.09 | 1.21 | 1.16 | 0.514 | 0.569 | 0.684 | 0.715 | 0.432 | 0.133 | 0.108 | 0.264
NCI-H322M | 0.484 | 0.457 | 0.494 | 0.446 | 0.414 | 0.828 | 0.827 | 0.565 | 0.867 | 0.853 | 0.874 | 0.761 | 0.583 | 0.779 | 0.751 | 0.432
